We go through six molecules from US20240300886A1, “ARYLCYCLOHEXYLAMINE DERIVATIVES AND THEIR USE IN THE TREATMENT OF PSYCHIATRIC DISORDERS” (GILGAMESH PHARMACEUTICALS, INC., priority 2021, published 2024).

The nature of data set [1]: Metabolic stability in dog liver microsomes (DLM). Type of data set: in vitro ADME, beagle dogs. The conditions noted are these: for half-life at 1 μM / microsomal CLint at 1 μM: male, beagle, dog, pooled dog liver microsomes, pH 7.4, 1 μM compound, 0.50 mg protein/mL, NADPH. Here is the method:
(§1) DLM Stability. Pooled DLM from male beagle dogs (XenoTech D1000) were used. Microsomal incubations were carried out in multi-well plates. Liver microsomal incubation medium consisted of PBS (100 mM, pH 7.4), MgCl2 (1 mM), and NADPH (1 mM), with 0.50 mg of liver microsomal protein per mL. Control incubations were performed by replacing the NADPH-cofactor system with PBS. Test compounds (1 μM, final solvent concentration 1.0%) were incubated with microsomes at 37° C. with constant shaking. Six time points over 60 minutes were analyzed, with 60 μL aliquots of the reaction mixture being drawn at each time point. The reaction aliquots were stopped by adding 180 μL of cold (4° C.) acetonitrile containing 200 ng/mL tolbutamide and 200 ng/mL labetalol as internal standards (TS), followed by shaking for 10 minutes, and then protein sedimentation by centrifugation at 4,000 rpm for 20 minutes at 4° C. Supernatant samples (80 μL) were diluted with water (240 μL) and analyzed for parent compound remaining using a fit-for-purpose liquid chromatography-tandem mass spectrometry (LC-MS/MS) method.
(§2) Data Analysis. The elimination constant (kel), half-life (t1/2) and intrinsic clearance (Clint) were determined in a plot of […] versus time, using linear regression analysis.
On the technique in general: Liver microsomes are a subcellular fraction often used to study metabolism.

The target of data set [2] is serotonin transporter (SERT) (Homo sapiens (Human), UniProt P31645). Description: SERT fluorescent substrate uptake inhibition in transfected cells. Type of data set: cell-based. The conditions noted are these: for inhibition at 10 µM: stably transfected cells expressing SERT; for ability to inhibit SERT uptake (in words): transfected cells, 10 μM. Here is the method: The ability of disclosed compounds to inhibit uptake of monoamines by the serotonin transporter (SERT) was measured using a fluorescent substrate uptake assay in transfected cells (Table 15). […] Considering that inhibitors of SERT are well known to have antidepressant and anxiolytic effects and are among the most commonly prescribed drugs for mood disorders (e.g. fluoxetine, sertraline, etc.), blockade of SERT by certain compounds of the present disclosure is expected to synergize with their NMDAR inhibition to increase therapeutic activity for treating depression and related disorders. […] Further, the ability to tune the ratio between SERT and NMDAR is useful to obtain the optimal therapeutic profile depending on the intended clinical indication.
Uptake Inhibition. The ability of test compounds to block monoamine uptake by SERT was determined using the Neurotransmitter Transporter Uptake Assay Kit manufactured by Molecular Devices (Cat #R8173). Briefly, stably transfected cells expressing SERT were grown and plated into 384-well plates at a concentration of 20,000 cells per well. Plates were then incubated for 16-20 h at 37° C. and 5% CO2. The medium was then aspirated and replaced with 25 μL of assay buffer (20 mM HEPES in HBSS, containing 0.1% BSA) containing the test compounds at the appropriate concentrations. Plates were then centrifuged at 300 rpm for 15 s and then incubated at 37° C. for 30 minutes. At this time, 25 μL of the proprietary fluorescent dye solution was added, the plates were incubated at 37° C. for 60 minutes, and then fluorescence was quantified on a plate reader (excitation wavelength=440 nm, emission wavelength=520 nm). The proprietary dye solution contains a mixture of 1) a fluorescent dye that mimics the endogenous substrate of SERT and is thereby actively transported to the intracellular compartment in the absence of an inhibitor and 2) a masking dye that inhibits the fluorescence of dye 1 in the extracellular compartment. Therefore, the overall fluorescence of the system increases as the fluorescent dye is transported into the cells.

The nature of data set [3]: Metabolic stability in cynomolgus monkey liver microsomes (CLM). Format: in vitro ADME, cynomolgus monkeys. The conditions noted are these: for half-life at 1 μM / microsomal CLint at 1 μM: male, cynomolgus monkey, pooled cynomolgus monkey liver microsomes, pH 7.4, 1 μM compound, 0.50 mg protein/mL, NADPH. Here is the method:
as §1, with “CLM” for “DLM”, “cynomolgus monkeys (Corning 452413)” for “beagle dogs (XenoTech D1000)”, “(IS),” for “(TS),”
as §2

Data set [4] concerns the target MK-801 binding site of the N-methyl-D-aspartate receptor (NMDAR). Description: NMDA receptor radioligand binding with [3H]MK-801. On the set-up: species or system Wistar rat. As to conditions: for Ki: [3H]MK-801 displacement, Wistar rat brain (minus cerebellum), read-out: NMDAR Ki (95% CI). Here is the method:
The binding affinities of disclosed compounds at the MK-801 binding site of the N-methyl-D-aspartate receptor (NMDAR) were determined in radioligand binding experiments (Table 13).
Radioligand Binding. Affinity of the test compounds for NMDAR was determined in radioligand binding experiments with [^3H]MK-801 by Eurofins Panlabs, Inc., using methods adapted from the literature (Javitt el al. 1987; Reynolds et al. 1989) and under the conditions described in Table 14.

As usually defined, the half-life is the time needed for the level to fall by half in the phase considered. For orientation: microsomal CLint means a measure of how fast metabolising enzymes remove a compound, apart from limits set by blood flow. In data set [1], `CNC1(c2ccccc2Cl)CCCCC1=O` (racemic) [racemic ketamine, ketamine] had a half-life at 1 μM of 2.4 min and a microsomal CLint at 1 μM of 589 µL/min/mg.
By inhibition is commonly meant the relative decrease from the control value, in per cent. For the molecule `N[C@@]1(c2ccc(F)cc2)CCCCC1=O` [Compound 1R, (R)-2-amino-2-(4-fluorophenyl)cyclohexan-1-one], the inhibition at 10 µM in data set [2] was determined as 10.4%.
The term Ki denotes a dissociation constant, usually derived from enzyme kinetics or from competition with a known ligand. In data set [3], `N[C@]1(c2ccc(F)cc2)CCCCC1=O` [Compound 1S, (S)-2-amino-2-(4-fluorophenyl)cyclohexan-1-one] showed a half-life at 1 μM of more than 145 min and a microsomal CLint at 1 μM of less than 9.6 µL/min/mg. Moreover, the inhibition at 10 µM in data set [2] amounted to 14.9%. In data set [1], the half-life at 1 μM is more than 145 min and the intrinsic metabolic clearance (microsomal CLint) at 1 μM is less than 9.6 µL/min/mg. Besides, the Ki in data set [4] was determined as 1700 nM.
Regarding `CN[C@@]1(c2ccc(F)cc2)CCCCC1=O` [Compound 2R, (R)-2-(4-fluorophenyl)-2(methylamino)cyclohexan-1-one], in data set [3], the “stability in CLM (in words)” value was “substantially more stable”, the half-life at 1 μM was 62.3 min and the microsomal CLint at 1 μM was found to be 22.2 µL/min/mg. In data set [2], the inhibition at 10 µM stood at 58.8% and the “ability to inhibit SERT uptake (in words)” value is on record as “substantial inhibitor, activity in the micromolar range”. Also, in data set [1], the “stability in DLM (in words)” value is “substantially more stable”, the half-life at 1 μM turned out to be 38.7 min and the intrinsic metabolic clearance (microsomal CLint) at 1 μM is 35.8 µL/min/mg. Also, in data set [4] (MK-801 site of NMDAR), the “NMDAR binding potency relative to enantiomer 2S (less potent)” value was approximately 3 fold. In data set [4], the inhibition constant (Ki) came out at 3300 nM.
As to `CN[C@]1(c2ccc(F)cc2)CCCCC1=O` [Compound 2S, (S)-2-(4-fluorophenyl)-2-(methylamino)cyclohexan-1-one], in data set [3], the half-life at 1 μM worked out at 38.3 min and the microsomal CLint at 1 μM was 36.1 µL/min/mg. Further, the inhibition at 10 µM in data set [2] worked out at 36.4%. In data set [1], this molecule yielded a half-life at 1 μM of 18.2 min and a microsomal CLint at 1 μM of 76 µL/min/mg. Besides, the Ki in data set [4] came out at 1200 nM.
For the molecule `N[C@]1(c2cccc(F)c2)CCCCC1=O` [Compound 3S], in data set [3], the half-life at 1 μM was 83.7 min and the microsomal CLint at 1 μM is 16.6 µL/min/mg. In data set [2], the inhibition at 10 µM is -0.21% and the “ability to inhibit SERT uptake (in words)” value is “inactive”. In data set [1], this molecule gave a half-life at 1 μM of 51.7 min and a microsomal CLint at 1 μM of 26.8 µL/min/mg. In data set [4], the inhibition constant Ki came out at 1700 nM.
